Test results: publication PMC10977697 (PLOS ONE, 2024)
Where no end group is shown, it is not given here.

Legend:
HtrA1 = assay type: binding, human; settings: ratio of signal for target protein over BSA background
Fz7CRD-Fc = assay type: binding; settings: for S/N: ratio of signal for target protein over BSA background; for ELISA: spot phage ELISA signal, DCP displayed on M13 p8

Sequence | S/N (HtrA1) | S/N (Fz7CRD-Fc) | ELISA (Fz7CRD-Fc)
AFDCLGQCGRCDFHKLQCVAWLMYSFVRPYCNSSCTR (also: bicyclic or more (positions not given here)) [HtrA1 AVR9 53] | 7.3 | – | –
AFDCLGQCGRCDFHKLQCVFWHWYYCNSSCTR (also: bicyclic or more (positions not given here)) [HtrA1 AVR9 84] | 8.5 | – | –
AFDCLGQCGRCDFHKLQCVIQQMRWKAQPDGYCNSSCTR (also: bicyclic or more (positions not given here)) [HtrA1 AVR9 37] | 9.7 | – | –
AFDCLGQCGRCDFHKLQCVKQVMATLWSMYCNSSCTR (also: bicyclic or more (positions not given here)) [HtrA1 AVR9 39] | 9.9 | – | –
AFDCLGQCGRCDFHKLQCVLVEPSGWYQVISWKYCNSSCTR (also: bicyclic or more (positions not given here)) [Fz7CRD-Fc AVR9 2] | – | 5.0 | 0.29
AFDCLGQCGRCDFHKLQCVLWHQWVKWYVYCNSSCTR (also: bicyclic or more (positions not given here)) [HtrA1 AVR9 68] | 8.9 | – | –
AFDCLGQCGRCDFHKLQCVLWTVANMQHYYCNSSCTR (also: bicyclic or more (positions not given here)) [HtrA1 AVR9 85] | 6.5 | – | –
AFDCLGQCGRCDFHKLQCVMMRLLARWVFKFYCNSSCTR (also: bicyclic or more (positions not given here)) [HtrA1 AVR9 52] | 13.2 | – | –
AFDCLGQCGRCDFHKLQCVQYAYRWLMRQYCNSSCTR (also: bicyclic or more (positions not given here)) [HtrA1 AVR9 55] | 4.1 | – | –
AFDCLGQCGRCDFHKLQCVRWSIDAIIIWYCNSSCTR (also: bicyclic or more (positions not given here)) [HtrA1 AVR9 42] | 12.1 | – | –
AFDCLGQCGRCDFHKLQCVRYLIKYSIMWMTYCNSSCTR (also: bicyclic or more (positions not given here)) [HtrA1 AVR9 26] | 15.1 | – | –
AFDCLGQCGRCDFHKLQCVVFQIIYQAVNYCNSSCTR (also: bicyclic or more (positions not given here)) [HtrA1 AVR9 88] | 9.5 | – | –
AFDCLGQCGRCDFHKLQCVVTIIRKMMLWYCNSSCTR (also: bicyclic or more (positions not given here)) [HtrA1 AVR9 31] | 19.0 | – | –
AFDCLGQCGRCDFHKLQCVWRWMHQYCNSSCTR (also: bicyclic or more (positions not given here)) [HtrA1 AVR9 2] | 22.7 | – | –
AFDCLGQCGRCDFHKLQCVWRYIQKMRYCNSSCTR (also: bicyclic or more (positions not given here)) [HtrA1 AVR9 89] | 14.9 | – | –
AFDCLGQCGRCDFHKLQCVWSIYVKFWYCNSSCTR (also: bicyclic or more (positions not given here)) [HtrA1 AVR9 4] | 21.2 | – | –
AFDCLGQCGRCDFHKLQCVYRQFWMVKFGWQPGYCNSSCTR (also: bicyclic or more (positions not given here)) [HtrA1 AVR9 10] | 15.2 | – | –
GCGWLPELKLWCKQDSDCLAGCVCEDMIDCG (also: bicyclic or more (positions not given here)) [Fz7CRD-Fc EET I-II 38] | – | 15.1 | 1.32
GCGWLPELKLWCKQDSDCLAGCVCEDMIDCG (also: bicyclic or more (positions not given here)) [Fz7CRD-Fc EET I-II 42] | – | 36.2 | 2.79
GCGWWFKQWFCKQDSDCLAGCVCGPNGFCG (also: bicyclic or more (positions not given here)) [Fz7CRD-Fc EET I-II 19] | – | 3.8 | 1.83
GCGYWYITWFCKQDSDCLAGCVCGPNGFCG (also: bicyclic or more (positions not given here)) [Fz7CRD-Fc EET I-II 30] | – | 3.0 | 2.64
GCHSVHSMCKQDSDCLAGCVCYWFYGCG (also: bicyclic or more (positions not given here)) [HtrA1 EET I-II 1] | 11.8 | – | –
GCPRILMRCKQDSDCLAGCVCWMPVLCV (also: bicyclic or more (positions not given here)) [HtrA1 EET I-II 19] | 3.1 | – | –
GCREMLGNWVCKRFRLSSWLCLWSNGFCGT [HtrA1 EET I-II 41] | 11.8 | – | –
GCTLYMYLCKQDSDCLAGWMFHHCG [Fz7CRD-Fc EET I-II 26] | – | 28.9 | 1.79
GCTLYMYLCKQDSDCLAGWMFHHCG [Fz7CRD-Fc EET I-II 55] | – | 29.3 | 2.81
GCVHVIREWWCKQDSDSSWFVCGPNGFCG [Fz7CRD-Fc EET I-II 17] | – | 26.4 | 2.69

Sequence | S/N (HtrA1) | S/N (Fz7CRD-Fc) | ELISA (Fz7CRD-Fc)
GCWWMNVRTRQGCKQDSDCLAGCVCGPNGFCG (also: bicyclic or more (positions not given here)) [HtrA1 EET I-II 25] | 2.8 | – | –
GPTQSAFGECGGIGYSGPTVCASGTTCQVLSPMFSFCLPGAS (also: bicyclic or more (positions not given here)) [Fz7CRD-Fc CBD 57] | – | 28.7 | 2.41
GPTQSAFGECGGIGYSGPTVCASGTTCQVLSPYWSFCLPGAS (also: bicyclic or more (positions not given here)) [Fz7CRD-Fc CBD 15] | – | 38.4 | 2.76
GPTQSAGGWCGGIGYSGPTVCASGTTCQVLTPMESICLPGAS (also: bicyclic or more (positions not given here)) [Fz7CRD-Fc CBD 29] | – | 5.7 | 0.36
GPTQSAWGWCGGIGYSGPTVCASGTTCQVLSPYESYCLPGAS (also: bicyclic or more (positions not given here)) [Fz7CRD-Fc CBD 53] | – | 4.3 | 0.32
GPTQSHYGQCGGRGYFGTMYCASGTTCQFKWRRDSQCLPGAS (also: bicyclic or more (positions not given here)) [HtrA1 CBD 74] | 22.8 | – | –
GPTQSHYGQCGGSGYWGLFMCASGTTCQSVTMTVSQCLPGAS (also: bicyclic or more (positions not given here)) [HtrA1 CBD 54] | 5.6 | – | –
GPTQSHYGQCGGWGYTGWYQCASGTTCQGPRSRLSQCLPGAS (also: bicyclic or more (positions not given here)) [HtrA1_CBDwt46] | 25.9 | – | –
GPTQSIWGECGGIGYSGPTVCASGTTCQVLTPFYSFCLPGAS (also: bicyclic or more (positions not given here)) [Fz7CRD-Fc CBD 14] | – | 15.7 | 1.18
GPTQSKYGVCGGIGYSGPTVCASGTTCQVLYPGYSLCLPGAS (also: bicyclic or more (positions not given here)) [Fz7CRD-Fc CBD 72] | – | 37.9 | 2.80
GPTQSLWGECGGIGYSGPTVCASGTTCQVLSPEYSFCLPGAS (also: bicyclic or more (positions not given here)) [Fz7CRD-Fc CBD 18] | – | 16.4 | 1.75
GPTQSMFGECGGIGYSGPTVCASGTTCQVLSPFYSFCLPGAS (also: bicyclic or more (positions not given here)) [Fz7CRD-Fc CBD 47] | – | 30.4 | 2.59
GPTQSMWGECGGIGYSGPTVCASGTTCQVLSPFYSFCLPGAS (also: bicyclic or more (positions not given here)) [Fz7CRD-Fc CBD 56] | – | 3.7 | 0.27
WIPCISAALGCSCKNKVCYALNNMVQFLYIHHCGESCV (also: bicyclic or more (positions not given here)) [HtrA1 CirculinA 66] | 12.7 | – | –
WIPCISAALGCSCKNKVCYFFHKLMYYMCGESCV (also: bicyclic or more (positions not given here)) [HtrA1 CirculinA 24] | 17.7 | – | –
WIPCISAALGCSCKNKVCYFMTQHIRWFVKCGESCV (also: bicyclic or more (positions not given here)) [HtrA1 CirculinA 91] | 26.8 | – | –
WIPCISAALGCSCKNKVCYHFQHWVQMNKCGESCV (also: bicyclic or more (positions not given here)) [HtrA1 CirculinA 82] | 10.4 | – | –
WIPCISAALGCSCKNKVCYILNRSCGESCV (also: bicyclic or more (positions not given here)) [HtrA1 CirculinA 40] | 8.0 | – | –
WIPCISAALGCSCKNKVCYIVILTTPCGESCV (also: bicyclic or more (positions not given here)) [HtrA1 CirculinA 73] | 8.4 | – | –
WIPCISAALGCSCKNKVCYMYYYIMGQNLMNTCGESCV (also: bicyclic or more (positions not given here)) [HtrA1 CirculinA 48] | 24.1 | – | –
WIPCISAALGCSCKNKVCYQVWQHIFKCGESCV (also: bicyclic or more (positions not given here)) [HtrA1 CirculinA 67] | 15.4 | – | –
WIPCISAALGCSCKNKVCYVATMVVHWVCGESCV (also: bicyclic or more (positions not given here)) [HtrA1 CirculinA 34] | 16.8 | – | –
WIPCISAALGCSCKNKVCYYAGKIYSWQAQLLCGESCV (also: bicyclic or more (positions not given here)) [HtrA1 CirculinA 93] | 8.4 | – | –
WIPCISAALGCSCKNKVCYYMWHVHSLICGESCV (also: bicyclic or more (positions not given here)) [HtrA1 CirculinA 36] | 9.6 | – | –
WIPCISAALGCSCKNKVCYYTILPISYYWHLVCGESCV (also: bicyclic or more (positions not given here)) [HtrA1 CirculinA 45] | 8.2 | – | –
WIPCISAALGCSCKNKVCYYVMKYCGESCV (also: bicyclic or more (positions not given here)) [HtrA1 CirculinA 17] | 13.7 | – | –
